According to publication PMC10457970, “HIV-1 Integrase Inhibition Activity by Spiroketals Derived from Plagius flosculosus, an Endemic Plant of Sardinia (Italy) and Corsica (France)” (Pharmaceuticals, 2023):
Several values for one entry are separate records, joined by “and”; a condition that tells them apart may be missing. Equal values may be shown once.

How the values were obtained:
[1] = molecular target: T1, HIV-1 RT-associated RNase H (Human immunodeficiency virus type 1 group M subtype B, UniProt P04585); assay: RT-associated RNase H assay; type: biochemical; conditions: pure compounds; mean ± SD of three independent experiments
T1 construct: His-tagged p66/p51 HIV-1 RT was expressed in E. coli strain M15; His; made in house; host or cells: Escherichia coli M15
Protocol: (§1) Recombinant 6xHis IN protein, FLAG-IN, His-LEDGF and FLAG-LEDGF were expressed in Escherichia coli strain BL21 (DE3) and purified as previously described. His-tagged p66/p51 HIV-1 RT was expressed in E. coli strain M15 and purified as previously described.
The HIV-1 RNase H activity was determined as described by Esposito et al.. Briefly, 100 µL of volume of reaction containing 50 mM Tris HCl pH 7.8, 6 mM MgCl2, 1 mM DTT, 80 mM KCl, hybrid RNA/DNA (5′-[…]-3′-Fluorescein, 5′-[…]-3′-Dabcyl), and 3.8 nM RT was incubated for 1 h at 37 °C. The reaction was stopped by the addition of EDTA and measured with a plate reader at 490/528 nm.

[2] = molecular target: HIV-1 IN–LEDGF interaction (Human immunodeficiency virus type 1 group M subtype B, UniProt P04585); assay: biochemical; type: binding
Protocol: Recombinant His-IN was pre-incubated for 30 min at room temperature in the presence of the tested compounds in a mixture reaction composed of 150 mM NaCl, 2 mM MgCl2, 0.1% Nonidet P-40, 1 mg/mL BSA, and 25 mM Tris pH 7.4 [12, 48]. After this time, FLAG-LEDGF was added and the mixture was incubated for 30 min at room temperature. A mixture of two specific antibodies (anti-His6-XL665 and anti-FLAG-EuCryptate) was then added to the reaction and incubated for 4 h at 4 °C.

[3] = Compound UV–VIS spectra in the presence of MgCl2 (chelation); type: physicochemical; conditions: 6 mM MgCl2, UV–VIS 250–600 nm
Protocol: The ability of compounds to chelate the MgCl2 was measured using 15% ethanol and 15 mM Tris HCl pH 7.8 (in 1 mL of volume). The UV–VIS spectrum was recorded, before and after the addition of 6 mM MgCl2, from 250 nm to 600 nm.

TZM-bl cells = assay: Cytotoxicity, CellTiter-Glo 2.0; type: cell-based; conditions: 48 h
Protocol: (§2) Cytotoxicity was determined by the CellTiter-Glo 2.0 Luminescent Cell Viability Assay (Promega) according to the manufacturer’s protocol. Briefly, 15,000 cells/well of Tzm-bl were exposed to serial diluition of the drug and after 48 h, cell viability was calculated by measuring cellular ATP through a luciferase-based chemical reaction. The luminescent signal obtained from cells treated with serial dilution of the tested compounds, or the control (DMSO), was measured using the GloMax® Discover Multimode Microplate Reader (Promega) and processed with GraphPad PRISM software to calculate the half-maximal cytotoxic concentration (CC50). The DMSO curve, used as a control, was added in each plate and SPK-3 was tested in duplicate. The non-toxic dose corresponding to 90–100% cell viability was used as the maximum concentration in the antiviral assays.

[4] = Cytotoxicity, CellTiter-Glo 2.0; type: cell-based; conditions: human, TZM-bl cells
Protocol: as §2

[5] = molecular target: T2, HIV-1 IN in the presence of LEDGF/p75 cellular cofactor (Human immunodeficiency virus type 1 group M subtype B, UniProt P04585); assay: HTRF LEDGF-dependent HIV-1 IN activity assay; type: biochemical; conditions: pure compounds; mean ± SD of three independent experiments
T2 construct: Recombinant 6xHis IN protein, FLAG-IN, His-LEDGF and FLAG-LEDGF were expressed in Escherichia coli strain BL21 (DE3); made in house; host or cells: Escherichia coli BL21 (DE3)
Protocol: as §1
(§3) The evalaution of 3′-processing and strand-transfer IN reactions in the presence or in the absence of recombinant LEDGF/p75 cellular cofactor were performed as described previously. Briefly, recombinant IN was pre-incubated for 1 h at room temperature, in a buffer containing 20 mM HEPES pH 7.5, 1 mM DTT, 1% Glycerol, 20 mM MgCl2, 0.05% Brij-35 and 0.1 mg/mL BSA and increasing concentrations of the tested compounds.
(§4) Then, 9 nM Biotin3′-DNA donor substrate 50 nM 5′-Cy5-DNA acceptor substrate and 50 nM LEDGF/p75 protein (when required) were added to this reaction and incubated at 37 °C for 90 min.

[6] = molecular target: HIV-1 IN–IN subunit exchange (Human immunodeficiency virus type 1 group M subtype B, UniProt P04585); assay: biochemical; type: binding
Protocol: (§5) This IN–IN binding assay allows the verification of higher-order, aberrant IN multimerization or IN–IN subunit exchange. Briefly, His and FLAG-tagged IN enzymes were added in a buffer containing 25 mM Tris pH 7.4, 150 mM NaCl, 2 mM MgCl2, 0.1% Nonidet P-40, and 1 mg/mL BSA [12, 48] with different concentrations of compounds, and incubated for 2.5 h at room temperature. After this time, a mixture of two specific antibodies (anti-His6-XL665 and anti-FLAG-EuCryptate) was added to the reaction and incubated at room temperature for 3 h. The HTRF signal was recorded as described in the previous paragraph.
(§6) The analysis of the signal in order to evaluate the aberrant IN multimerization and interference with the IN–IN subunit exchange or functional IN–IN interactions was performed as described above.

[7] = molecular target: T3, HIV-1 IN in the absence of LEDGF (Human immunodeficiency virus type 1 group M subtype B, UniProt P04585); assay: biochemical; type: biochemical
T3 construct: Recombinant 6xHis IN protein, FLAG-IN, His-LEDGF and FLAG-LEDGF were expressed in Escherichia coli strain BL21 (DE3); made in house; host or cells: Escherichia coli BL21 (DE3)
Protocol: as §1, §3, §4

HIV-1 IN multimerization = test system: T4, HIV-1 IN multimerization; type: binding; conditions: concentration for 50% of the multimerization increase
T4 construct: His and FLAG-tagged IN enzymes were added in a buffer containing 25 mM Tris pH 7.4; made in house; host or cells: Escherichia coli BL21 (DE3)
Protocol: as §5, §6

[8] = test system: HIV-1 wild-type reference strain NL4-3; assay: Anti-HIV-1 activity in TZM-bl cell line; type: cell-based; conditions: 48 h
Protocol: The antiviral activity of the investigated compound was evaluated by measuring the IC50 values against the HIV-1 wild-type reference strain NL4-3 in a TZM-bl cell line-based phenotypic assay, as previously published. Briefly, 15,000 cells/well were infected with the wild-type NL4-3 strain at multiplicity of infection (MOI) of 0.1 in the presence of serial diluitions of the drug in a 96-well plate format. […] Each compound was tested in duplicate and tested in two independent experiments. After 48 h, the cells were detached with the Glo-Lysis buffer (Promega, Madison, WI, USA), and the Bright-Glo Luciferase reagent (Promega) was added to each well as indicated by the manufacturer. Finally, the relative luminescence units were measured using the GloMax Discover instrument (Promega) as previously described and processed with GraphPad software to calculate half-maximal inhibitory concentration (IC50) values.

SMILES | IC50 [1] [µM] | shift in the maximum of absorbance in the presence of Mg2+ [3] [nm] | CC50 at 48 h [4] [µM] | IC50 [5] [µM] | also measured
CC#CC#C/C=C1/O[C@@]2(OC=C[C@H]2OC(C)=O)[C@@H](O)[C@@H]1Cl [SPK3, flosculin A] | 3.6 ± 0.6 | 3 | 50 | 1.46 ± 0.16 | IN–LEDGF Binding IC50 [2]: did not inhibit; IC50 ([2]; read-out: IN–LEDGF Binding IC50): > 100 µM; CC50 (TZM-bl cells): 50.1 ± 4.3 µM; IC50 [6]: > 100 µM; IN–IN Subunit Exchange IC50 [6]: without any effect; IC50 ([7]; absence of LEDGF, read-out: LEDGF-Independent IN Activity IC50): 27.3 ± 2.3 µM; decrease in potency on HIV-1 IN in the absence vs presence of LEDGF/p75 ([7]; ratio LEDGF-independent / LEDGF-dependent IC50): 18.7 fold; IN Multimerization MI50 (HIV-1 IN multimerization): 1 µM and 1.00 ± 0.01 µM; EC50 inhibiting HIV-1 viral replication ([8]; NL4-3, TZM-bl, two independent experiments): did not inhibit
Cc1nnc(C(=O)NC(C)(C)c2nc(C(=O)NCc3ccc(F)cc3)c(O)c(=O)n2C)o1 [Raltegravir, reference compound] | – | – | > 100 | – | EC50 ([8]; Human immunodeficiency virus 1, NL43, TZM-bl, read-out: EC50 inhibiting HIV-1 viral replication): 0.0087 µM
CC#CC#C/C=C1\C=CC2(OC=CC2OC(C)=O)O1 (stereo not shown) [SPK2] | 20 ± 6.1 | 4.5 | – | 14.7 ± 0.3 | –
CC#CC#C/C=C1\C=CC2(CCCO2)O1 (stereo not shown) [SPK1, tonghaosu] | 10 ± 5.4 | 3.5 | – | 1.69 ± 0.38 | –
CCOC(=O)C(=O)CC(=O)/C=C/c1cccn1Cc1ccc(F)cc1 [RDS1643, reference compound] | – | 16 | – | – | –
